Reference: paper PMC8776094, “Reactive Oxygen Species Production Is Responsible for Antineoplastic Activity of Osmium, Ruthenium, Iridium and Rhodium Half-Sandwich Type Complexes with Bidentate Glycosyl Heterocyclic Ligands in Various Cancer Cell Models” (International Journal of Molecular Sciences, 2022)

Legend:
[1] = system: A2780 ovarian cancer cells; assay: MTT reduction assay, 4 h, rapid toxicity, A2780; assay type: cell-based; conditions: 4 h treatment; for Maximum Inhibition (%) A2780: MTT assay, tested 0.001694-33.3333 µM, ND = not detected or cannot be calculated
Procedure: The compounds were tested between 0.001694 and 33.3333 µM, using a 4-hour-long MTT test to assess rapid toxicity and a 48-hour-long SRB assay to assess the long-term effects of the inhibition of proliferation (cytostasis). The MTT assay assesses the activity of mitochondrial complex I and detects rapid, direct toxicity, as well as indicating apoptosis and necrosis. The SRB assay measures the total protein content that is proportional to cell numbers; therefore, the assay can detect changes in cell numbers and can thus be used as a readout for cell proliferation. The SRB assay was performed after 48 h of treatment (with the exception of L428 cells, which were tested for 96 h due to their slower proliferation rate). In this setting, the SRB assay informs us of long-term changes to cell proliferation. We assessed the maximal inhibition within that concentration range, and descriptive statistics were performed. We performed a one-way ANOVA, followed by the Kruskal–Wallis test, regardless of the normal or non-normal distribution of the data. Due to the large number of significance values, the results of the significance calculations are provided in an Excel spreadsheet at https://figshare.com/s/28d14597d5041f08eb08 (accessed on 6 January 2022), among other primary data of the study. Where possible, nonlinear regression was performed on the curves to determine the IC50 values ((inhibitor) vs. response—variable slope (four parameters) method with Graphpad v8.0.1). […] In Table 5, we added the IC50 values that we determined for a set of 4 active ruthenium half-sandwich complexes we identified previously, to be used in subsequent structure-activity relationship (SAR) analyses.
A2780 cells were cultured in RMPI 1640 medium, supplemented with 10% fetal calf serum, 2 mM glutamine, and 1% penicillin-streptomycin.
The MTT reduction assay measures the activity of mitochondrial complex I and can be used to detect apoptosis and necrosis. The assay was performed similarly to the method used in [72]. Briefly, cells were plated in 96-well plates the day before the assay. Cells were treated with the compounds for 4 h, then MTT was added at 0.5 mg/mL final concentration and the cells were incubated at 37 °C in a cell incubator. The culture media were removed and the reduced MTT dye was dissolved in dimethyl-sulfoxide (DMSO) and plates were measured in a plate photometer (Thermo Scientific Multiscan GO spectrophotometer, Waltham, MA, USA) at 540 nm. On each plate, wells were designed to contain untreated/vehicle-treated cells. In the calculations, the readings for these wells were considered as 1 and all readings were expressed relative to these values.

[2] = system: Capan2, a pancreatic adenocarcinoma cell line; assay: SRB assay, 48 h, cytostasis, Capan2; assay type: cell-based; conditions: for IC50 / Capan2 Max. Inh. (%): SRB assay; for Capan2 Max. Inh. (%): ND = not detected
Description: We turned next to assessing whether the cytostatic activity of Os-3, Os-4, Os-5, Os-6 and Ir-6 complexes is specific for ovarian cancer cell lines or if they may be active on other cell lines. To that end, we tested the complexes on another carcinoma cell line (Capan2, a pancreatic adenocarcinoma cell line), on a sarcoma cell line (Saos, an osteosarcoma cell line) and on a lymphoma cell line (L428, a Hodgkin’s lymphoma cell line).
Capan2 cells were maintained in MEM, 10% fetal bovine serum, 1% penicillin/streptomycin, and 2 mM glutamine.
The assay was performed similarly to the method used in [73]. Cells were seeded in 96-well plates the day before the assay. Cells were treated with the compounds for 48 h, with the exception of L428, where 96 h of treatment was applied. Cells were fixed with 10% trichloroacetic acid (TCA). Fixed cells were washed in distilled water 3 times, followed by staining with SRB (0.4 m/V% dissolved in 1% acetic acid) for 10 min. The stained cells were washed in 1% acetic acid 5 times; the acetic acid was removed, and the cells were left to dry. Protein-bound SRB was released by adding 100 µL 10 mM Tris base. Plates were measured in a plate photometer (Thermo Scientific Multiscan GO spectrophotometer, Waltham, MA, USA) at 540 nm. On each plate, wells were designed to contain untreated cells. In calculations, the readings for these wells were considered as 1 and all readings were expressed relative to these values.
Statistical analysis was performed using the 8.0.1 version of Graphpad Prism. Values were tested for normal distribution, using the d’Agostino and Pearson normality test. When necessary, values were log-normalized or were normalized using the Box-Cox normalization method or using a two-step transformation, as indicated in the figure captions. Nonlinear regression was performed using the built-in “[Inhibitor] vs. Response—Variable slope (four parameters), least-square fit” utility of Graphpad, yielding the IC50 and Hill slope values.
Here, 1.5 × 10^3 Capan2, 3 × 10^3 Saos cells and 10^4 L428 cells were plated onto 96-well plates. Capan2 and Saos cells were treated with the compounds in the concentrations indicated for 48 h for an SRB assay. L428 cells were treated with the compounds in the concentrations indicated for 96 h, then cells were counted using conventional microscopy and a Burker chamber. Data are represented as average ± SD, from three biological replicates; individual assays were performed in duplicate. Values were normalized for vehicle-treated cells; the absorbance for vehicle-treated cells is equal to 1. A one-way ANOVA, followed by a Kruskal–Wallis test, was performed individually for each compound. The results of the statistical analysis are presented in an Excel spreadsheet at https://figshare.com/s/28d14597d5041f08eb08 (accessed on 6 January 2022). Nonlinear regression was performed on the data.

Compound	toxicity on A2780 cells in short-term MTT assay (in words) [1]	Maximum Inhibition (%) A2780 [1]	cytostatic activity on Capan2 cells (in words) [2]	IC50 [2]	Capan2 Max. Inh. (%) [2]
Cc1c(C)c(C)[c-](C)c1C.F[P-](F)(F)(F)(F)F.O=C(OCC1OC(n2cc(-c3ccccn3)nn2)C(OC(=O)c2ccccc2)C(OC(=O)c2ccccc2)C1OC(=O)c1ccccc1)c1ccccc1.[Cl][Ir+2] (mixture of isomers) [Ir-6]	exerted toxicity in higher concentrations	43.07%	active on all cell lines	4.15 µM	100%
Cc1ccc(C(C)C)cc1.F[P-](F)(F)(F)(F)F.O=C(OCC1OC(c2nnc(-c3ccccn3)o2)C(OC(=O)c2ccccc2)C(OC(=O)c2ccccc2)C1OC(=O)c1ccccc1)c1ccccc1.[Cl][Os+] (mixture of isomers) [Os-3]	–	37.42%	active on all cell lines	8.8 µM	100%
Cc1ccc(C(C)C)cc1.F[P-](F)(F)(F)(F)F.O=C(OCC1OC(c2nnc(-c3ccccn3)o2)C(OC(=O)c2ccccc2)C(OC(=O)c2ccccc2)C1OC(=O)c1ccccc1)c1ccccc1.[Cl][Os+] (mixture of isomers) [Os-4]	–	26.67%	active on all cell lines	6.2 µM	100%
Cc1ccc(C(C)C)cc1.F[P-](F)(F)(F)(F)F.O=C(OC1COC(c2nnc(-c3ccccn3)o2)C(OC(=O)c2ccccc2)C1OC(=O)c1ccccc1)c1ccccc1.[Cl][Os+] (mixture of isomers) [Os-5]	–	31.38%	active on all cell lines	8.89 µM	100%
Cc1ccc(C(C)C)cc1.F[P-](F)(F)(F)(F)F.O=C(OCC1OC(n2cc(-c3ccccn3)nn2)C(OC(=O)c2ccccc2)C(OC(=O)c2ccccc2)C1OC(=O)c1ccccc1)c1ccccc1.[Cl][Os+] (mixture of isomers) [Os-6]	–	21.38%	active on all cell lines	1.71 µM	100%
